Measured values: the NIST ThermoML archive (doi:10.1016/j.fluid.2008.03.004)
Numbers after ± are expanded uncertainties.

Test: xn = mol fraction of the nth substance listed
Details: 101 kPa, Liquid; for speed of sound: Sing-around technique in a fixed-path interferometer

CCOC(C)(C)C [2-ethoxy-2-methylpropane] + Cc1ccccc1C
Details | mass density [kg/m3] | speed of sound [m/s]
305.65 K, x1 = 0.055 | 860.769 ± 0.41 | –
305.65 K, x1 = 0.098 | 854.986 ± 0.41 | –
305.65 K, x1 = 0.201 | 840.317 ± 0.43 | –
305.65 K, x1 = 0.307 | 825.151 ± 0.46 | –
305.65 K, x1 = 0.4 | 811.766 ± 0.47 | –
305.65 K, x1 = 0.502 | 797.158 ± 0.49 | –
305.65 K, x1 = 0.601 | 783.634 ± 0.51 | –
305.65 K, x1 = 0.661 | 775.073 ± 0.53 | –
305.65 K, x1 = 0.803 | 755.208 ± 0.56 | –
305.65 K, x1 = 0.895 | 742.232 ± 0.57 | –
305.65 K, x1 = 0.947 | 735.025 ± 0.58 | –
305.65 K, x1 = 1 | 727.038 ± 0.58 | –
308.15 K, x1 = 0.055 | 858.631 ± 0.41 | 1287.6 ± 2.2
308.15 K, x1 = 0.098 | 852.826 ± 0.42 | 1274.8 ± 2.2
308.15 K, x1 = 0.201 | 838.108 ± 0.44 | 1241.4 ± 2.2
308.15 K, x1 = 0.307 | 822.889 ± 0.46 | 1205.4 ± 2.2
308.15 K, x1 = 0.4 | 809.458 ± 0.48 | 1176.8 ± 2.2
308.15 K, x1 = 0.502 | 794.798 ± 0.5 | 1143 ± 2.2
308.15 K, x1 = 0.601 | 781.229 ± 0.52 | 1112.4 ± 2.2
308.15 K, x1 = 0.661 | 772.636 ± 0.53 | 1093.1 ± 2.2
308.15 K, x1 = 0.803 | 752.697 ± 0.56 | 1049.4 ± 2.2
308.15 K, x1 = 0.895 | 739.673 ± 0.58 | 1022.1 ± 2.2
308.15 K, x1 = 0.947 | 732.438 ± 0.59 | 1007 ± 2.2
308.15 K, x1 = 1 | 724.443 ± 0.58 | 986.39 ± 2.2
310.65 K, x1 = 0.055 | 856.488 ± 0.41 | 1277.2 ± 2.2
310.65 K, x1 = 0.098 | 850.664 ± 0.42 | 1264.8 ± 2.2
310.65 K, x1 = 0.201 | 835.894 ± 0.44 | 1231.1 ± 2.2
310.65 K, x1 = 0.307 | 820.623 ± 0.46 | 1195 ± 2.2
310.65 K, x1 = 0.4 | 807.147 ± 0.48 | 1166.3 ± 2.2
310.65 K, x1 = 0.502 | 792.433 ± 0.5 | 1132.4 ± 2.2
310.65 K, x1 = 0.601 | 778.816 ± 0.52 | 1101.8 ± 2.2
310.65 K, x1 = 0.661 | 770.192 ± 0.53 | 1082.4 ± 2.2
310.65 K, x1 = 0.803 | 750.176 ± 0.56 | 1038.6 ± 2.2
310.65 K, x1 = 0.895 | 737.1 ± 0.58 | 1011.2 ± 2.2
310.65 K, x1 = 0.947 | 729.838 ± 0.59 | 996 ± 2.2
310.65 K, x1 = 1 | 721.826 ± 0.59 | 975.42 ± 2.2
313.15 K, x1 = 0.055 | 854.337 ± 0.41 | 1267.1 ± 2.2
313.15 K, x1 = 0.098 | 848.496 ± 0.42 | 1254.7 ± 2.2
313.15 K, x1 = 0.201 | 833.676 ± 0.44 | 1220.9 ± 2.2
313.15 K, x1 = 0.307 | 818.351 ± 0.47 | 1184.6 ± 2.2
313.15 K, x1 = 0.4 | 804.83 ± 0.48 | 1155.9 ± 2.2
313.15 K, x1 = 0.502 | 790.061 ± 0.51 | 1121.9 ± 2.2
313.15 K, x1 = 0.601 | 776.395 ± 0.52 | 1091.1 ± 2.2
313.15 K, x1 = 0.661 | 767.738 ± 0.54 | 1071.7 ± 2.2
313.15 K, x1 = 0.803 | 747.65 ± 0.57 | 1027.7 ± 2.2
313.15 K, x1 = 0.895 | 734.522 ± 0.58 | 1000.3 ± 2.2
313.15 K, x1 = 0.947 | 727.227 ± 0.6 | 985.03 ± 2.2
313.15 K, x1 = 1 | 719.179 ± 0.59 | 964.53 ± 2.2
315.65 K, x1 = 0.055 | 852.189 ± 0.42 | 1256.9 ± 2.2
315.65 K, x1 = 0.098 | 846.323 ± 0.43 | 1244.6 ± 2.2
315.65 K, x1 = 0.201 | 831.454 ± 0.45 | 1210.7 ± 2.2
315.65 K, x1 = 0.307 | 816.076 ± 0.47 | 1174.3 ± 2.2
315.65 K, x1 = 0.4 | 802.508 ± 0.49 | 1145.5 ± 2.2
315.65 K, x1 = 0.502 | 787.684 ± 0.51 | 1111.4 ± 2.2
315.65 K, x1 = 0.601 | 773.969 ± 0.53 | 1080.5 ± 2.2
315.65 K, x1 = 0.661 | 765.278 ± 0.54 | 1061 ± 2.2
315.65 K, x1 = 0.803 | 745.112 ± 0.57 | 1017 ± 2.2
315.65 K, x1 = 0.895 | 731.932 ± 0.59 | 989.44 ± 2.2
315.65 K, x1 = 0.947 | 724.606 ± 0.6 | 974.07 ± 2.2
315.65 K, x1 = 1 | 716.527 ± 0.59 | 953.54 ± 2.2
318.15 K, x1 = 0.055 | 850.034 ± 0.42 | 1246.8 ± 2.2
318.15 K, x1 = 0.098 | 844.148 ± 0.43 | 1234.5 ± 2.2
318.15 K, x1 = 0.201 | 829.229 ± 0.45 | 1200.6 ± 2.2
318.15 K, x1 = 0.307 | 813.795 ± 0.47 | 1164.1 ± 2.2
318.15 K, x1 = 0.4 | 800.179 ± 0.49 | 1135.1 ± 2.2
318.15 K, x1 = 0.502 | 785.298 ± 0.51 | 1100.9 ± 2.2
318.15 K, x1 = 0.601 | 771.536 ± 0.53 | 1070 ± 2.2
318.15 K, x1 = 0.661 | 762.809 ± 0.55 | 1050.4 ± 2.2
318.15 K, x1 = 0.803 | 742.564 ± 0.57 | 1006.2 ± 2.2
318.15 K, x1 = 0.895 | 729.329 ± 0.59 | 978.59 ± 2.2
318.15 K, x1 = 0.947 | 721.974 ± 0.6 | 963.16 ± 2.2
318.15 K, x1 = 1 | 713.96 ± 0.6 | 942.67 ± 2.2
320.65 K, x1 = 0.055 | 847.874 ± 0.42 | 1236.7 ± 2.2
320.65 K, x1 = 0.098 | 841.964 ± 0.43 | 1224.5 ± 2.2
320.65 K, x1 = 0.201 | 826.995 ± 0.45 | 1190.5 ± 2.2
320.65 K, x1 = 0.307 | 811.507 ± 0.48 | 1153.8 ± 2.2
320.65 K, x1 = 0.4 | 797.84 ± 0.5 | 1124.8 ± 2.2
320.65 K, x1 = 0.502 | 782.908 ± 0.52 | 1090.4 ± 2.2
320.65 K, x1 = 0.601 | 769.096 ± 0.54 | 1059.4 ± 2.2
320.65 K, x1 = 0.661 | 760.332 ± 0.55 | 1039.8 ± 2.2
320.65 K, x1 = 0.803 | 740.007 ± 0.58 | 995.53 ± 2.2
320.65 K, x1 = 0.895 | 726.717 ± 0.6 | 967.79 ± 2.2
320.65 K, x1 = 0.947 | 719.329 ± 0.61 | 952.29 ± 2.2
320.65 K, x1 = 1 | 711.25 ± 0.6 | 931.73 ± 2.2
323.15 K, x1 = 0.055 | 845.711 ± 0.43 | 1226.7 ± 2.2
323.15 K, x1 = 0.098 | 839.779 ± 0.44 | 1214.5 ± 2.2
323.15 K, x1 = 0.201 | 824.757 ± 0.46 | 1180.4 ± 2.2
323.15 K, x1 = 0.307 | 809.216 ± 0.48 | 1143.6 ± 2.2
323.15 K, x1 = 0.4 | 795.504 ± 0.5 | 1114.5 ± 2.2
323.15 K, x1 = 0.502 | 780.509 ± 0.52 | 1080 ± 2.2
323.15 K, x1 = 0.601 | 766.647 ± 0.54 | 1049 ± 2.2
323.15 K, x1 = 0.661 | 757.845 ± 0.55 | 1029.2 ± 2.2
323.15 K, x1 = 0.803 | 737.438 ± 0.58 | 984.84 ± 2.2
323.15 K, x1 = 0.895 | 724.092 ± 0.6 | 957.05 ± 2.2
323.15 K, x1 = 0.947 | 716.673 ± 0.61 | 941.53 ± 2.2
323.15 K, x1 = 1 | 708.642 ± 0.61 | 920.73 ± 2.2
